Consider 16 molecules from paper PMC7352571, “New Anti-Cancer Strategy to Suppress Colorectal Cancer Growth Through Inhibition of ATG4B and Lysosome Function” (Cancers, 2020).

Molecules are shown by their SMILES.

The test system of assay [1] is proteolytic activity of lysosomes in HeLa cells. The experiment in a line: DQ-BSA Red assay. It is filed as cell-based. The following applies: 6 h, 163N 5 or 10 µM, Baf 0.5 µM, E64D 25 µM plus pepstatin A 50 µM. As for the experimental part:
Figure 5 163N causes lysosome dysfunction. […] . (C) HeLa cells were treated with or without 163N (10 µM) for 6 h, followed by immunostaining using cathepsin B and LAMP1 antibody. The colocalization of cathepsin B and LAMP1 was measured.
DQ-BSA Red assay: cells were incubated with 10 µg/mL DQ-BSA Red in EBSS medium at 37° for 1.5 h, and then new medium with or without the indicated compounds were added for another 4 or 6 h, and then fluorescence microscopy was used for detecting the intensity of red fluorescent.
Supplementary Materials: New Anti-Cancer Strategy
to Suppress Colorectal Cancer Growth Through
Inhibition of ATG4B and Lysosome Function
Figure S1. Compounds with a 6-methylpyrimidine-2,4-diamine structure could cause lysosome
inhibition. (A) The structure of the representative lysosome inhibitors. (B) GFP-LC3B HeLa cells were
treated with Baf (0.5 µM) or 5 µM of different lysosome inhibitors for 2 h, then LysoTracker Red (LTR,
25 ng/mL) was used and the relative LTR fluorescent intensity was measured. (C) HeLa cells were
firstly treated with 10 µg/mL DQ-BSA for 1.5 h, and then treated with Rap (1 µM), Baf (0.5 µM), E64D
(25 µM) plus pepstatin A (50 µM), or 5 µM of different lysosome inhibitors for 4 h.
Cancers 2020, 12, x; www.mdpi.com/journal/ cancers […]

Assay [2] has as its system lysosome acidity in HeLa cells. As to the kind of experiment: LysoTracker Red (LTR) assay, HeLa. The following applies: 6 h, 163N 5 or 10 µM, Rap 1 µM, E64D 25 µM plus pepstatin A 50 µM. The class given is cell-based. Here is the method:
Figure 5 163N causes lysosome dysfunction. […] (C) HeLa cells were treated with or without 163N (10 µM) for 6 h, followed by immunostaining using cathepsin B and LAMP1 antibody. The colocalization of cathepsin B and LAMP1 was measured.
LTR assay: cells were incubated with LTR (25 nM) in HBSS medium at 37° for 30 min, and then fluorescence microscopy was used for detecting fluorescence intensity.

For another assay, the system named is HeLa cells. As to the kind of experiment: CCK-8 cell viability assay, HeLa. The class given is cell-based. The following applies: Homo sapiens, HeLa; CCK-8 assay, 48 h. As for the experimental part:
(§1) Cells were seeded and incubated overnight in 96-well plates at a density of 5 × 10^3 cells/well. […] A total of 10 µL CCK-8 were added to each well for additional 1 h and cell viability was measured by CCK-8 assay. Absorbance was measured at 450 nm. The IC50 values were calculated by GraphPad Prism 7 (GraphPad Software Inc., San Diego, CA, USA).
(Tetrazolium assays rely on reduction of a dye to a coloured formazan, in cell work by metabolically active cells.)

In a further assay the test system is HCT116 cells. As to the kind of experiment: CCK-8 cell viability assay, HCT116. It is filed as cell-based, Human. The following applies: Homo sapiens, HCT-116; CCK-8 assay, 48 h. Here is the method: as §1
In a further assay the test system is HL60 cells. As to the kind of experiment: CCK-8 cell viability assay, HL60. It is filed as cell-based. The following applies: Homo sapiens, HL-60; CCK-8 assay. As for the experimental part:
as §1

The target in the next assay is T1, ATG4B (Homo sapiens, UniProt Q9Y4P1).
T1 sequence (Q9Y4P1 1-393): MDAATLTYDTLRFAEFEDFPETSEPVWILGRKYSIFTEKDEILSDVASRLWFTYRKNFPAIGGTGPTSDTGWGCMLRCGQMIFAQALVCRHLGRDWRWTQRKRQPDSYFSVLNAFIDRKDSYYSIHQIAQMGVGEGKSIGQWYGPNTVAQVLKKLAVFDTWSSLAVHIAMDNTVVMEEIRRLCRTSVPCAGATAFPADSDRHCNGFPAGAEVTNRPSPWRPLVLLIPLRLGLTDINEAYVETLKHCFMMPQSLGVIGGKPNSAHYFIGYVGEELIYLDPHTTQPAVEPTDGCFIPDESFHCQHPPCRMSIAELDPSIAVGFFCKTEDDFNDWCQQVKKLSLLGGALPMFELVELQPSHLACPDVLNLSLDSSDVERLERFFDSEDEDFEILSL
As to the kind of experiment: FRET-based assay for ATG4B activity.

Method for ATG4B: A FRET-based assay for detecting ATG4B activity was carried out as described [45].

Turning to `CO/C1=C\C(C)=C\[C@@H](C)[C@@H](O)[C@@H](C)C/C(C)=C/C=C/[C@H](OC)[C@@H]([C@@H](C)[C@@H](O)[C@H](C)[C@@]2(O)C[C@@H](O)[C@H](C)[C@@H](C(C)C)O2)OC1=O` [Baf, Bafilomycin A1, reference compound], in assay [1], the “dequenching of DQ-BSA (proteolytic activity of lysosome)” value is on record as “nearly no dequenching of DQ-BSA”.

`CO[C@H]1C[C@@H]2CC[C@@H](C)[C@@](O)(O2)C(=O)C(=O)N2CCCC[C@H]2C(=O)O[C@H]([C@H](C)C[C@@H]2CC[C@@H](O)[C@H](OC)C2)CC(=O)[C@H](C)/C=C(\C)[C@@H](O)[C@@H](OC)C(=O)[C@H](C)C[C@H](C)/C=C/C=C/C=C/1C` [Rap, rapamycin, reference compound]: the “LTR red fluorescence / acidic vesicles” value in assay [2] is recorded as “stable”.

On to `COc1ccccc1/C=C/c1cc(O)cc(=O)[nH]1` [XGS00025], for which the IC50 in the assay with HeLa cells is over 100 µM; in the assay with HCT116 cells, over 100 µM; with HL60 cells it was over 100 µM; on ATG4B, 29.2 µM.

Take `Cc1ccc(/C=C/c2cc(O)cc(=O)[nH]2)o1` [XGS00031]: the IC50 with HeLa cells was over 100 µM; in the assay on HCT116 cells it was over 100 µM; with HL60 cells it was over 100 µM; against ATG4B, 13 µM.

As to `COc1cccc(/C=C/c2cc(N)cc(O)n2)c1` [XGS00043], the IC50 in the assay on HeLa cells is over 100 µM; with HCT116 cells, over 100 µM; with HL60 cells it was over 100 µM; on ATG4B it was 36.3 µM.

On to `Nc1cc(O)nc(/C=C/c2ccc(Cl)cc2)c1` [XGS00046], for which the IC50 with HeLa cells was over 100 µM; in the assay on HCT116 cells it was over 100 µM; in the assay on HL60 cells, over 100 µM; against ATG4B, 39.1 µM.

Take `Nc1cc(O)nc(/C=C/c2ccco2)c1` [XGS00048]: the IC50 in the assay with HeLa cells was over 100 µM; in the assay with HCT116 cells, over 100 µM; with HL60 cells, over 100 µM; at ATG4B, 13.8 µM.

Consider `CCN1C(=O)/C(=C\c2cn(CC(=O)O)c3ccccc23)C(=O)N(c2ccc(Cl)cc2)C1=S` [XGS00119], for which the IC50 is over 100 µM in the assay with HeLa cells, over 100 µM in the assay with HCT116 cells, over 100 µM in the assay on HL60 cells and 7.37 µM at ATG4B.

For `N/C(=N\[N+](=O)[O-])N/N=C/c1ccc(-c2ccc(-n3cnnn3)cc2)o1` [XOS00117], the IC50 is over 100 µM in the assay on HeLa cells, over 100 µM in the assay with HCT116 cells, over 100 µM with HL60 cells and 6.65 µM at ATG4B.

In the case of `CC(=O)Nc1ccc(/N=C/c2c(C)c(C#N)c3[nH]c4cc(C)ccc4n3c2=O)cc1` [XOS00125], the IC50 in the assay with HeLa cells was over 100 µM; with HCT116 cells, over 100 µM; in the assay with HL60 cells it was over 100 µM; on ATG4B it was 40.6 µM.

For `CCOC(=O)c1cnc2c(/N=N/c3ccc(OCC)cc3)c(N)nn2c1N` [XOS00149], the IC50 in the assay on HeLa cells is over 100 µM; with HCT116 cells, over 100 µM; in the assay on HL60 cells, over 100 µM; against ATG4B, 44 µM.

In the case of `COc1cccc(-c2cc3nc(-c4cccnc4)c(C#N)c(N)n3n2)c1` [XOS00154], the IC50 in the assay with HeLa cells was over 100 µM; in the assay on HCT116 cells, over 100 µM; in the assay with HL60 cells it was over 100 µM; at ATG4B it was 40.7 µM.

For `CCOC(=O)c1c(-c2ccccc2)oc2ccc(O)cc12` [XOS00163], the IC50 in the assay on HeLa cells was 32 µM; with HCT116 cells, 23 µM; in the assay on HL60 cells it was 31.7 µM; on ATG4B, 6.2 µM.

With `COc1cccc(-c2cc3c([N+](=O)[O-])cc([N+](=O)[O-])cc3[nH]2)c1OC` [XOS00176], the IC50 in the assay with HeLa cells was over 100 µM; in the assay with HCT116 cells it was over 100 µM; in the assay on HL60 cells, over 100 µM; at ATG4B, 23.8 µM.

With `O=C(Nc1ccc(-c2cc3ccccc3o2)cc1)c1ccco1` [XOS00201], the IC50 in the assay with HeLa cells is 25.6 µM; in the assay on HCT116 cells it was 19.6 µM; with HL60 cells it was over 100 µM; at ATG4B, 8.98 µM.

For the molecule `COc1c2c(cc3oc(=O)c4c5cc(O)c(O)cc5oc4c13)OCC2` [XOS00207], the IC50 with HeLa cells is 87.1 µM; in the assay on HCT116 cells it was 17.6 µM; in the assay on HL60 cells, 60.7 µM; on ATG4B, 2.31 µM.

Usually IC50 stands for the concentration that gives 50% inhibition. Low values mean inhibition by little substance, high ones a need for much substance.
